# Legend:
# [1] = Non-enzymatic decomposition of the glycinate ester prodrug at physiological pH; format: physicochemical; settings: pH of 7 or above
# Excerpt: 4 arose by a competitive intermolecular reaction to the lactam intermediate and reacted to release both 5 and 6.
# [2] = test system: human glioma; settings: murine model; cited from earlier work
# [3] = target: human serum albumin (HSA) (Homo sapiens, UniProt P02768); settings: cited from earlier work
# [4] = human blood, cited from earlier work
# [5] = target: T1, topoisomerase I cleavage complexes (Homo sapiens, UniProt P11387); settings: cell-free; vs camptothecin or SN-38; cited from earlier work
# T1 sequence (P11387 1-765): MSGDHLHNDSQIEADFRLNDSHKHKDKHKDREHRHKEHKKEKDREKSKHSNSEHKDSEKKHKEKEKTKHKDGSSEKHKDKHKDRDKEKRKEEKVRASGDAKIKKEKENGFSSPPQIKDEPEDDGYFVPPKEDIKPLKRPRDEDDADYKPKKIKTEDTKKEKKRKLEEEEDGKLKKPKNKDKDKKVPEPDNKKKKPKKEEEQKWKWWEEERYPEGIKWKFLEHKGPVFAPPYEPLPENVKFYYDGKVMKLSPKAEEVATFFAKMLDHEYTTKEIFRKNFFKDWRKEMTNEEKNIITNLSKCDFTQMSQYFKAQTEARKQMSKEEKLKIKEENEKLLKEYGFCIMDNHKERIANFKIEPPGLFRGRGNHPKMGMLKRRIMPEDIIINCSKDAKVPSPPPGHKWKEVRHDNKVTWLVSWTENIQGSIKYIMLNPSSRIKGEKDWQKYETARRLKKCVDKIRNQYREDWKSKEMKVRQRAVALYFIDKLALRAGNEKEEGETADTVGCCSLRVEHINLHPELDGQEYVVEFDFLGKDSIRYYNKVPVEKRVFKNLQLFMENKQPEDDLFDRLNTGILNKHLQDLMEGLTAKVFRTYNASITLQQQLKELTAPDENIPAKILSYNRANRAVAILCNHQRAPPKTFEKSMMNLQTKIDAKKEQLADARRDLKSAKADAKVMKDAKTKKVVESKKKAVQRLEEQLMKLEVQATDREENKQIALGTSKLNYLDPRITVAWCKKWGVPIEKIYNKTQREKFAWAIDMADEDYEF
# [6] = Stability of free and liposomal prodrug in whole blood
# Chain of human serum albumin (HSA) (P02768 25-609): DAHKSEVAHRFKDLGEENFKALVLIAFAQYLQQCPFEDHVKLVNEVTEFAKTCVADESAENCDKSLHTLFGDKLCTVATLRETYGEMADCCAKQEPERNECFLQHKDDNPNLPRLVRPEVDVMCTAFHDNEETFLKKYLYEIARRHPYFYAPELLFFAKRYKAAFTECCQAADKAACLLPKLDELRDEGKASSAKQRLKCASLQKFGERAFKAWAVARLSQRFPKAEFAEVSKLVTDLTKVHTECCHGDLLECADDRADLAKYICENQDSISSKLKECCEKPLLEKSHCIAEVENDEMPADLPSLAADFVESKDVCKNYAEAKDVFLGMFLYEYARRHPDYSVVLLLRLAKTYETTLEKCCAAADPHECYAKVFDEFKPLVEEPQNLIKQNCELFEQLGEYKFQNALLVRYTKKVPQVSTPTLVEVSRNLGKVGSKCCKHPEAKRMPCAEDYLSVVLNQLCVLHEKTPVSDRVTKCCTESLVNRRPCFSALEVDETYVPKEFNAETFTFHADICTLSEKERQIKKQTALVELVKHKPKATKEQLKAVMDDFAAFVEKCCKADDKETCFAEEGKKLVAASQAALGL
compound,measurement,setting,value
CC[C@@]1(OC(=O)CN)C(=O)OCc2c1cc1n(c2=O)Cc2c-1nc1ccc(O)cc1c2[Si](C)(C)C(C)(C)C [DB-67 20(S)-glycinate ester],decomposition at physiological pH,[1],rapid and convenient non-enzymatic decomposition process that releases active DB-67
"CC[C@@]1(O)C(=O)OCc2c1cc1n(c2=O)Cc2c-1nc1ccc(O)cc1c2[Si](C)(C)C(C)(C)C [DB-67, 7-t-butyldimethylsilyl-10-hydroxycamptothecin]",activity against human glioma,[2],display activity against human glioma
same,association of carboxylate form with the high affinity carboxylate binding pocket on HSA,[3],blocks the associations
same,% lactone at equilibrium,[4],30%
same,t1/2,[4]; lactone hydrolysis,2.17 h
same,stability of topoisomerase I cleavage complexes,[5],more stable topoisomerase I cleavage complexes than camptothecin or SN-38
CCc1c2c(nc3ccc(O)cc13)-c1cc3c(c(=O)n1C2)COC(=O)[C@]3(O)CC [SN-38],association of carboxylate form with the high affinity carboxylate binding pocket on HSA,[3],block SN-38 from associating
Camptothecin,affinity of lactone form for HSA,[3]; lactone form,moderate affinity
DB-67 4-aminobutanoate ester,decomposition of free prodrug,[6],extensive
